Data as given in ChEMBL document CHEMBL2321670, “Near native binding of a fluorescent serotonin conjugate to serotonin type 3 receptors” (Bioorg Med Chem Lett, 2013).
Active and inactive are the calls of the source. No cut-off for these calls is given here.

Columns and labels:
Assay type in all cases: cell-based
[1] = target: T1, 5-hydroxytryptamine receptor 3A (Homo sapiens, UniProt P46098); test: Binding affinity to C-terminal-His6-tagged 5HT3A receptor (unknown origin) expressed in HEK293 cells after 2 hrs by fluorimetric analysis
T1 sequence (P46098 whole entry): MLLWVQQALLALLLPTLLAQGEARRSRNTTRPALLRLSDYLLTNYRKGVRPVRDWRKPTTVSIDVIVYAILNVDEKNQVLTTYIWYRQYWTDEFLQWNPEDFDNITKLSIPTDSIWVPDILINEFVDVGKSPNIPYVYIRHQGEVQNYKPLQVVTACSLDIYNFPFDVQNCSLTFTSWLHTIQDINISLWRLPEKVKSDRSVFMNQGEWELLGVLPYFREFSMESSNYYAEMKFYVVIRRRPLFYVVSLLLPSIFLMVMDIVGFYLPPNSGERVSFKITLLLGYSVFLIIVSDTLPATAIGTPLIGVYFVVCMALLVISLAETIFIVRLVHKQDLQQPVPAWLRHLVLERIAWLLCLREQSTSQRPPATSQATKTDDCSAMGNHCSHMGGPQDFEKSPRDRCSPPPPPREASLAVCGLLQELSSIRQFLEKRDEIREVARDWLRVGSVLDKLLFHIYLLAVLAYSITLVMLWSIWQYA

[2] = target: T2, 5-hydroxytryptamine receptor 3A (Homo sapiens) (UniProt P46098); test: Binding affinity to C-terminal-His6-tagged 5HT3A receptor (unknown origin) expressed in HEK293 cells assessed as decrease in fluorescence at 10 to 500 nM after 2 hrs by fluorimetric analysis in presence of granisetron
T2 sequence (whole entry): T1 sequence (P46098 whole entry)

[3] = target: T2, 5-hydroxytryptamine receptor 3A (Homo sapiens); test: Binding affinity to C-terminal-His6-tagged 5HT3A receptor (unknown origin) expressed in HEK293 cells assessed as decrease in fluorescence at 10 to 500 nM after 2 hrs by fluorimetric analysis

CN(C)c1ccc2c(-c3ccc(C(=O)NCCCCCNC(=O)CCn4cc(CCN)c5cc(O)ccc54)cc3C(=O)[O-])c3ccc(=[N+](C)C)cc-3oc2c1
Kd [1]: 83 nM | Activity [2]: inactive | Activity [3]: Active
